Data published in patent publication US10106508B2, “Quinazoline heterocyclic compound as EGFR kinase inhibitor and preparation and application thereof” (BEIJING SCITECH-MQ PHARMACEUTICALS LIMITED, priority 2015, dated 2018).

Key:
EGFR (WT) = EGFR (WT) (Homo sapiens (Human), UniProt P00533); assay: Kinase-Glo luminescent kinase assay, EGFR tyrosine kinase inhibitory activity (WT); format: biochemical; conditions: EGFR wild type
Description: (§1) Determination of the Compound Inhibitory Activity Against EGFR Kinase
(§2) The inhibitory activity of compounds in formula (I) and (II) were determined using Kinase-Glo luminescent kinase assay. The receptor tyrosine kinase EGFR was tested and Gefitinib, a known EGFR inhibitor, was chosen as the positive control compound. The method is detailed below:
(§3) The sample compounds were dissolved in DMSO and diluted it to 500 μM concentration with DMSO and transferred to a dose plate. The compounds were serially diluted with DMSO in 5 fold concentration. Then each concentration was diluted 10-fold with the reaction buffer to get a 10× final concentration. Transfer the compounds with concentrations ranging from 0.003 μM to 50 μM to EGFR assay plate to determine their kinase activity with a dose of 1 μL/well.
(§4) The positive control compound Gifitinib was dissolved in DMSO as 10 mM stock solution and diluted it to 100 μM concentration with DMSO. The control compound was serially diluted with DMSO in 5 fold concentration. Then each concentration was diluted 10-fold with the reaction buffer to get a 10× final concentration.
(§5) For the HPE (hundred percent effect: No kinase and no compound, but containing ATP, substrate and 1% DMSO) and ZPE (zero percent effect: No compound but containing kinase, ATP, substrate and 1% DMSO) wells, dilute 2 μL DMSO 10-fold with reaction buffer to obtain 10% DMSO solution. Then transfer it to the assay plat, 1 μL/well. The positive control wells contain kinase, ATP, substrate and positive control compound in different concentrations. The sample compound wells contain kinase, ATP, substrate and the compounds to be tested in different concentrations.
(§6) Preparation of the reagents in need: 4×ATP: dilute ATP 4 times with assay buffer to obtain a working solution; 4× substrate: dilute Poly ([…]: tyrosine) 4 times with assay buffer to obtain a working solution; 2.5×EGFR kinase: dilute EGFR kinase 2.5 times with assay buffer to obtain a working solution.
(§7) Kinase reaction: Add 10× compounds to the assay plate in a 384-well plate layout, 1 μL/well. For the HPE and ZPE wells, equal volume (1 μL/well) of 10% DMSO was added to the 384-well assay plate; Add 2.5×EGFR kinase into the assay plate in 384-well plate layout, 4 μL/well. For HPE and ZPE wells, an equal volume (4 μL/well) of assay buffer was added to the 384-well assay plate; Centrifuge the assay plate with 1000 rpm for 1 min to mix them; Pre-incubate the assay plate for 30 min at 30° C.; Mix equal volume of 4×ATP and 4× substrate to obtain 2×ATP-substrate mixture which serves as a reaction mixture for the determination of EGFR activity; Add 2×ATP-substrate mixture to the assay plate, 5 μL/well; Centrifuge the assay plate at 1000 rpm for 1 min to mix them; Incubate the assay plate for one hour at 30° C.; Add Kinase glo plus was to each well (10 μL/well), and then incubated the assay plate for 20 min at 27° C.; Read luminescence signal with Envision plate reader.

EGFR (T790M) = EGFR (T790M) (Homo sapiens (Human), UniProt P00533, T790M); assay: Kinase-Glo luminescent kinase assay, EGFR tyrosine kinase inhibitory activity (T790M); format: biochemical
Description: as §1, §2, §3, §4, §5, §6, §7

H358 cells = assay: Anti-proliferative activity, cell-counting kit-8 assay, H358; format: cell-based; conditions: CCK-8
Description: (§8) Cell Assay of EGFR Activity
(§9) The anti-proliferative activity was determined using cell-counting kit-8 assay (Dojindo, Japan). H358 and A549 cells lines were seeded at a density of 8000 cells/well and 3000 cells/well respectively in 96-well microtiter plates and were incubated at 37° C. overnight in a humidified incubator containing 5% CO2. Cells were dosed with compounds at final concentrations ranging from 0.025 to 80 μM in each well of the plate. Three groups were set up, including compound group to be tested, blank control group, positive control group (gefitinib).
(§10) The 96-well plate was incubated in cell incubator for 72 hours. The culture fluid was then removed and 100 μl/well of PBS buffer was added. 10 μl/well of CCK-8 solution was added and the assay plate was incubated in the cell incubator for 1 hour. Cell survival was determined by measuring the absorbance at 470 nm using a microplate reader. A calibration curve was prepared using the average data of the 4 wells for each concentration that contain the number of viable cells to determine the IC50 of the target compounds.

A549 cells = assay: Anti-proliferative activity, cell-counting kit-8 assay, A549; format: cell-based; conditions: CCK-8
Description: as §8, §9, §10

[1] = in vivo; cited from earlier work
EGFR = EGFR (Homo sapiens (Human), UniProt P00533); conditions: molecular level; read-out: IC50 against EGFR activity; cited from earlier work
remaining 81 kinase = conditions: screening of 85 kinases; selectively inhibits EGFR and 3 other mutants; cited from earlier work

Chain of EGFR (T790M) (P00533 25-1210 T790M): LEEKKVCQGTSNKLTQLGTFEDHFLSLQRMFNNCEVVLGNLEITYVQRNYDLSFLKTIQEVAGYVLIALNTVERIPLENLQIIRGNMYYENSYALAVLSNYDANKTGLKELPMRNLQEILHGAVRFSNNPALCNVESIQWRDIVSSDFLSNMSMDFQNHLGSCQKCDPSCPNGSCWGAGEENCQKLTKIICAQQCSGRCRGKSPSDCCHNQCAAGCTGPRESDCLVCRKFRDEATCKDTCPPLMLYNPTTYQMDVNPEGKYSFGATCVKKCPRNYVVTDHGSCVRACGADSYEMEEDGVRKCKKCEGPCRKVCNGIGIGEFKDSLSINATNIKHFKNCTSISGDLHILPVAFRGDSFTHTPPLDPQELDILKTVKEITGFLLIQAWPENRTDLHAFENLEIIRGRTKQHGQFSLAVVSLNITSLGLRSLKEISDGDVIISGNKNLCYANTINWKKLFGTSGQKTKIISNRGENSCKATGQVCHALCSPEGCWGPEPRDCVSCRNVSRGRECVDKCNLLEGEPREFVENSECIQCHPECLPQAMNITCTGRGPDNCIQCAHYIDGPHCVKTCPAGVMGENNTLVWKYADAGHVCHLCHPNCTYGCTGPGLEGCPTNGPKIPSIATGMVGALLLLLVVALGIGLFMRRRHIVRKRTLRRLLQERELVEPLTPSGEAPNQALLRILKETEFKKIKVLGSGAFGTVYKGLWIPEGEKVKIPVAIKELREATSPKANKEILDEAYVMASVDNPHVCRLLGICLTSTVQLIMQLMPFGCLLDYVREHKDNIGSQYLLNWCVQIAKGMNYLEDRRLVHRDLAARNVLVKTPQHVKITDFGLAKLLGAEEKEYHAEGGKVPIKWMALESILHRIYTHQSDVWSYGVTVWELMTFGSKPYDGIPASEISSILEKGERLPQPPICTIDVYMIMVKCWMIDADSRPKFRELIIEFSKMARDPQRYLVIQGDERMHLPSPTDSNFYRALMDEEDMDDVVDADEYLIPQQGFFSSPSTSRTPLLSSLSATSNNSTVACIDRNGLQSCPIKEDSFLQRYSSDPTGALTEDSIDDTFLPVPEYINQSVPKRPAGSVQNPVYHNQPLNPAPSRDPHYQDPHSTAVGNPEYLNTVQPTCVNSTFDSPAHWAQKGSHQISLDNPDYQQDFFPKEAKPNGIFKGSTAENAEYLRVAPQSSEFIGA
Chain of EGFR (WT) (P00533 25-1210): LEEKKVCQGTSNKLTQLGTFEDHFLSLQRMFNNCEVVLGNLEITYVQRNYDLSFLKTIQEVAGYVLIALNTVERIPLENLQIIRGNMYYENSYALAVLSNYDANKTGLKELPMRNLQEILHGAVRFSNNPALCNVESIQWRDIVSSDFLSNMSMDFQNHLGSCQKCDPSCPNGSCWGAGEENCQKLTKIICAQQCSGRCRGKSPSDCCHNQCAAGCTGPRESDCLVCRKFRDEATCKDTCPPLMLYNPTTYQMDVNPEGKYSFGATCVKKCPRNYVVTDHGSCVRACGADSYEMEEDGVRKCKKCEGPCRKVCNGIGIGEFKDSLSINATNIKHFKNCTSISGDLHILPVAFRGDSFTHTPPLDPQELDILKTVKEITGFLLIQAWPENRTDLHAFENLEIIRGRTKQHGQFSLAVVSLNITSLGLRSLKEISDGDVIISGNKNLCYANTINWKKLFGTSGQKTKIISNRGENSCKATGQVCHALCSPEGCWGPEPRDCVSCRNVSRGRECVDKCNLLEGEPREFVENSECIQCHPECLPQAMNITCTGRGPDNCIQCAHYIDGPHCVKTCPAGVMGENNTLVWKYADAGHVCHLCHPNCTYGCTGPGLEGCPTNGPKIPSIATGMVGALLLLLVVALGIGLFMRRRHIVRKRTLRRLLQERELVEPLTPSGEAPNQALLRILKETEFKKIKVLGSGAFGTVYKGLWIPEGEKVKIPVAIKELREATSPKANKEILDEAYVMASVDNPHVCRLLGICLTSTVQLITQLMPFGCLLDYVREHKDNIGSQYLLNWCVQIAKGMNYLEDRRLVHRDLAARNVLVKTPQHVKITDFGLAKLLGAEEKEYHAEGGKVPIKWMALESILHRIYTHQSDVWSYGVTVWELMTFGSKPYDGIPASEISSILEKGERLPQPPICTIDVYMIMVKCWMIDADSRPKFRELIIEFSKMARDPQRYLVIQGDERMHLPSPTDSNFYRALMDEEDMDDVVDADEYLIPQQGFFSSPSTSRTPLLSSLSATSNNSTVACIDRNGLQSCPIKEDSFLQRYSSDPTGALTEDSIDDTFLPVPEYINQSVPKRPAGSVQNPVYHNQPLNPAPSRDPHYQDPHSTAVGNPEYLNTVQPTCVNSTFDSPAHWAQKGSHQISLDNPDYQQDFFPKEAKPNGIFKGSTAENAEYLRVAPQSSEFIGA
Chain of EGFR (P00533 25-1210): as above

Row | SMILES | IC50 (EGFR (WT)) [nM] | IC50 (EGFR (T790M)) [nM] | IC50 (H358 cells; Homo sapiens, NCI-H358, 72 h) [µM] | IC50 (A549 cells; Homo sapiens, A549, 72 h) [µM] | IC50 (H358 cells; 72 hours) [µM] | IC50 (A549 cells; 72 hours) [µM] | oral bioavailability [1] [%] | IC50 (EGFR) [µM] | effect on the remaining 81 kinase (remaining 81 kinase)
1 | CC(C)Oc1cc2ncnc(Nc3ccc(F)c(Cl)c3)c2c2c1OCCO2 [Compound I-7, N-(3-Chloro-4-fluorophenyl)-5-isopropoxy-2,3-dihydro-[1,4]dioxino[2,3-f]quinazolin-10-amine] | < 50 | < 50 | 6.92 | 11.6 | – | – | – | – | –
2 | C#Cc1cccc(Nc2ncnc3cc(OC(C)C)c4c(c23)OCCO4)c1 [Compound I-8, N-(3-Ethynylphenyl)-5-isopropoxy-2,3-dihydro-[1,4]dioxino[2,3-f]quinazolin-10-amine] | < 50 | < 50 | 5.54 | 6.08 | – | – | – | – | –
3 | CCOC(C)Oc1cc2ncnc(Nc3ccc(F)c([N+](=O)[O-])c3)c2c2c1OCCO2 (stereo not drawn) [Compound I-16, 5-(1-Ethoxyethoxy)-N-(4-fluoro-3-nitrophenyl)-2,3-dihydro-[1,4]dioxino[2,3-f]quinazolin-10-amine] | < 300 | < 300 | 17.5 | 17.5 | – | – | – | – | –
4 | C#Cc1cccc(Nc2ncnc3cc(OC4CCOCC4)c4c(c23)OCCO4)c1 [Compound I-21, N-(3-Ethynylphenyl)-5-(tetrahydro-2H-pyran-4-yloxy)-2,3-dihydro-[1,4]dioxino[2,3-f]quinazolin-10-amine] | < 100 | < 1000 | 1.47 | 6.42 | – | – | – | – | –
5 | Fc1cc(Nc2ncnc3cc(OC4CCOCC4)c4c(c23)OCCO4)ccc1Cl [Compound I-22, N-(4-Chloro-3-fluorophenyl)-5-(tetrahydro-2H-pyran-4-yloxy)-2,3-dihydro-[1,4]dioxino[2,3-f]-quinazolin-10-amine] | < 100 | < 1000 | > 20 | > 20 | – | – | – | – | –
6 | Fc1cc(Nc2ncnc3cc(OC4CCOC4)c4c(c23)OCCO4)ccc1Cl (stereo not drawn) [Compound I-23, N-(4-Chloro-3-fluorophenyl)-5-(tetrahydrofuran-3-yloxy)-2,3-dihydro-[1,4]dioxino[2,3-f]quinazolin-10-amine] | < 50 | < 100 | 13 | 15.1 | – | – | – | – | –
7 | C#Cc1cccc(Nc2ncnc3cc(OC4CCOC4)c4c(c23)OCCO4)c1 (stereo not drawn) [Compound I-24, N-(3-Ethynylphenyl)-5-(tetrahydrofuran-3-yloxy)-23-dihydro-[1,4]dioxino[2,3-f]quinazolin-10-amine] | < 50 | < 300 | 8.58 | 9.69 | – | – | – | – | –
8 | COCC(C)Oc1cc2ncnc(Nc3ccc(F)c(Cl)c3)c2c2c1OCCO2 (stereo not drawn) [Compound I-25, N-(3-Chloro-4-fluorophenyl)-5-(1-methoxypropan-2-yloxy)-2,3-dihydro-[1,4]dioxino[2,3-H]quinazolin-10-amine] | – | – | 10.6 | 10.4 | – | – | – | – | –
9 | COCCOc1cc2ncnc(Nc3ccc(F)c(Cl)c3)c2c2c1OCCO2 [Compound I-30, N-(3-Chloro-4-fluorophenyl)-5-(2-methoxyethoxy)-2,3-dihydro-[1,4]dioxino[2,3-f]quinazolin-10-amine] | < 50 | < 50 | 5.93 | 13.9 | – | – | – | – | –
10 | COCCOc1cc2ncnc(Nc3cccc(OC)c3)c2c2c1OCCO2 [Compound I-33, 5-(2-Methoxyethoxy)-N-(3-methoxyphenyl)-2,3-dihydro-[1,4]dioxino[2,3-f]quinazolin-10-amine] | < 200 | < 1000 | 9.64 | 12.1 | – | – | – | – | –
11 | C#Cc1cccc(Nc2ncnc3cc(OCC)c4c(c23)OCCO4)c1 [Compound I-35, 5-Ethoxy-N-(3-ethynylphenyl)-2,3-dihydro-[1,4]dioxino[2,3-f]quinazolin-10-amine] | < 50 | < 50 | 8.89 | 10.5 | – | – | – | – | –
12 | CCOc1cc2ncnc(Nc3cccc(OC)c3)c2c2c1OCCO2 [Compound I-36, 5-Ethoxy-N-(3-methoxyphenyl)-2,3-dihydro-[1,4]dioxino[2,3-f]quinazolin-10-amine] | < 50 | < 50 | 7.41 | 12 | – | – | – | – | –
13 | CCOc1cc2ncnc(Nc3ccc(C)c(Cl)c3)c2c2c1OCCO2 [Compound I-37, N-(3-Chloro-4-methylphenyl)-5-ethoxy-2,3-dihydro-[1,4]dioxino[2,3-f]quinazolin-10-amine] | < 50 | < 50 | 11.6 | 12.1 | – | – | – | – | –
14 | CCOc1cc2ncnc(Nc3ccc(C)cc3)c2c2c1OCCO2 [Compound I-39, 5-Ethoxy-N-p-tolyl-2,3-dihydro-[1,4]dioxino[2,3-f]quinazolin-10-amine] | < 50 | < 100 | 6.1 | 10.2 | – | – | – | – | –
15 | C#Cc1cccc(Nc2ncnc3cc(OCC4CCCO4)c4c(c23)OCCO4)c1 (stereo not drawn) [Compound I-41, N-(3-Ethynylphenyl)-5-((tetrahydrofuran-2-yl)methoxy)-2,3-dihydro-[1,4]dioxino[2,3-f]quinazolin-10-amine] | < 50 | < 100 | 9.51 | 11.5 | – | – | – | – | –
16 | O=C1COc2cc3ncnc(Nc4ccc(F)c(Cl)c4)c3cc2N1CCCN1CCOCC1 [II-1, 4-((3-Chloro-4-fluorophenyl)amino)-6-(3-morpholinopropyl)-6H-[1,4]oxazino[3,2-g]quinazolin-7(8H)-one] | < 50 | < 300 | – | – | 13.5 | 7.51 | – | – | –
17 | O=C1COc2cc3ncnc(Nc4ccc(F)c(Cl)c4)c3cc2N1CCCN1CCOCC1 [II-2, 4-((3-Chloro-4-fluorophenyl)amino)-6-(3-morpholinopropyl)-6H-[1,4]oxazino[3,2-g]quinazolin-7(8H)-one] | < 200 | < 1000 | 13.5 | 5.58 | – | – | – | – | –
18 | C#Cc1cccc(Nc2ncnc3cc(OCCOC)c(OCCOC)cc23)c1 [erlotinib, Erlotinib] | – | – | – | – | – | – | 80 | – | –
19 | C#Cc1cccc(Nc2ncnc3cc4c(cc23)OCCOCCOCCO4)c1 [icotinib, Icotinib] | – | – | – | – | – | – | – | 5 | no significant effect
